Tests used:
MTT cytotoxicity assay = assay type: cell-based; details: mouse, HT-22 hippocampal neuronal cells, HT-22 cells
Procedure: As these compounds show potential for future in vivo studies, the 3-(4,5-dimethythiazol-2-yl)-2,5-diphenyl tetrazolium bromide (MTT) assay was performed in order to test compounds 2, 3 of Chart 4 for cytotoxicity with HT-22 cells, which is a hippocampal neuronal cell line extracted from mice. This is a colorimetric assay that measures the mitochondrial activity of living cells in which MTT crosses into the mitochondria where it is reduced to media insoluble formazan (dark purple), which is later solubilized in DMSO and measured spectroscopically (λmax=540 nm). Since the reduction of MTT can only occur in living cells with undamaged mitochondria, this is a good assay to measure cell proliferation and cytotoxicity.
For the biological assays mouse hippocampal HT-22 cell line was used, incubated them at 37° C. in a humidified atmosphere 5% CO2, with Dulbecco's Modified Eagle Medium (500 ml) containing penicillin/streptomycin 100× (5 ml), Glutamine (100 mM, 5 ml), charcoal strip fetal bovine serum. […]
(§1) (3-(4,5-dimethylthiazol-2-yl)-2,5-diphenyltetrazolium bromide) cells were seeded in a 96 well plate with a density of 5000 cells per well (in 100 μL per well). […] Media is discarded again and 100 μL of DMSO are added to each well, rocked for 5 minutes and the absorbance (A510) was measured using a Molecular Devices Kinetic Microplate Reader.

[1] = DPPH radical quenching assay; assay type: biochemical; details: 1250 μM
Excerpt: (§2) Compound 2 (Chart 2) exists largely as the pyridol tautomer as confirmed by NMR. The reactivity of pyridol/pyridone based compounds such as chelidamic acid have shown reactivity with OH radicals in solution to form bis-pyridones and is a different mechanism than pyridine based compounds such as 1 (Chart 2). This reactivity is attributed to the enhanced antioxidant capacity observed. Chelidamic acid is the pyridone congener to the starting material used to produce 1. Therefore similar methodologies to produce 2 in gram scale quantities were employed.
As radicals are one product of miscompartmentalized metal ions, radical scavenging capability of compounds 1-3 (Chart 4) was tested using the DPPH assay. DPPH (2,2-diphenyl-1-picrylhydrazyl), is a dark purple (λmax=540 nm), stable free radical in solution that can be reduced to DPPHH in the presence of molecules with radical scavenging activity. This process results in a color change from dark purple to light yellow and can be followed spectroscopically by the decrease of the band at 540 nm. Applicants have, therefore, utilized this method to measure radical scavenging capability of their own organic molecules. BHT (butylhydroxytoluene) was used as a positive control due to its known antioxidant properties.
DPPH stock solution was prepared by dissolving 25 mg in 100 mL of absolute EtOH. The working radical solution was prepared by dilution with absolute EtOH to an absorbance of 1.3 at 512 nm. Stock solutions of the compounds tested were dissolved in DI H2O and EtOH 95% respectively and serial dilutions were made to get different concentrations. For the analysis 2 mL of the solutions were incubated with 2 mL of DPPH working solutions in the dark for 24 h. as well as 2 mL of DPPH working solution with 2 mL of H2O or EtOH to serve as blank. Analysis of the solutions was performed as follows: 1 mL of the sample solution was diluted with 1 mL of H2O shaken and the absorbance was measured at 515 nm.

HT-22 cells = assay: Aβ and Cu^+2 toxicity protection (MTT); assay type: cell-based, mouse; details: compound 50 to 120 μM, Aβ 15 μM, copper 15 μM
Procedure: In FIG. 16 one can observe that compound 2 (LC) is capable of protection from ranges of 50 to 120 μM reaching 37% of increase of cell proliferation with respect to the control (Aβ+Cu^+2). It is also shown that Aβ toxicity (15 μM) increases upon addition of copper (15 μM) opening the possibility of explaining the mechanism of action of LC (compound 2) which involves the possible chelation of copper out of the plaques, although the possibility of assessing ROS is always present. The experiment is completed with several controls including just compound 2, (Chart 4) and just copper, for comparison purposes.
The same analysis was performed for compound 3, (Chart 4), keeping the same ranges of concentrations for the compound (50 to 120 μM) as well as amyloid and copper. Restoring of cell proliferation was observed from 3 to 17%. […]
as §1

[2] = LA/DHLA; cited from earlier work
[3] = cited from earlier work
[4] = ABTS radical assay standardized against Trolox; assay type: biochemical; details: ligand concentration 100 μM
[5] = log K constants with Zn^II; assay type: binding
Excerpt: (§3) The ligand is the backbone to PCTA, a potential MRI contrast agent explored in recent years and has been repurposed for Applicant's work.

[6] = Cu-ascorbate redox system with coumarin-3-carboxylic acid (CCA); assay type: biochemical
Excerpt: As increased levels of ROS are associated with AD, Applicant's set out to investigate the antioxidant character of 1 compared to the heterocycles 2 and/or 3. […] Moreover, many of the pathways proposed to produce ROS leading to AD pathology involve metal ions. Applicant's therefore utilized the Cu-ascorbate redox system, Scheme 1, as a model to determine if the ligands could halt copper based redox activity under aerobic conditions:
Faller and co-workers employed this system to investigate the redox chemistry of amyloid systems with Cu. Coumarin-3-carboxylic acid (CCA), which generates fluorescent 7-hydroxy-CCA in the presence of hydroxyl radicals, was used to quantify the reduction of oxygen by copper redox-cycling in the presence of ascorbate.

FRDA cells [7] = assay: Calcein AM viability assay with BSO; assay type: cell-based, human; details: Homo sapiens, 48 hour BSO 1 mM, compound 1 nM final, read-out: cell viability compared to untreated control cells
Procedure: FIG. 5 is a graph showing a Calcien AM viability assay of FRDA cells after 48 hour exposure to BSO [1 mM] with 1-4 [1 nM final].
FIG. 10 is a graph showing Calcein AM viability assay of FRDA cells after 48 hour exposure to BSO [1 mM] followed by addition of 2 [various concentrations].
FRDA cells have higher levels of ROS due to mitochondrial misfunction associated with frataxin expression and therefore serve as a good model for ROS protection. […] Calcein AM, a non-fluorescent, hydrophobic compound that easily permeates intact, live cells, was used as an indicator for cell viability.
This dose response is visualized in the fluorescent cell images shown in FIG. 11 with increased cell survival corresponding to increasing 2 in the nM range.

Aβ1-40 [8] = assay: Turbidity assay of metal-induced amyloid aggregation; assay type: biochemical; details: for disaggregation of pre-formed metal-induced Aβ1-40 aggregates (turbidity): copper(II) or zinc(II) aggregates, ligand added afterwards
Excerpt: Metal ions (copper and zinc) bind to a histidine rich domain in amyloid producing Aβ in the form of insoluble plaques. This process has been comprehensively studied and described in a number of recent reviews. The aggregation of amyloid can be followed by simple spectroscopic techniques such as turbidity and tyrosine fluorescence studies. These methods were used to investigate the ability of 1 to dissociate pre-formed amyloid aggregates upon addition of metal ions, as well as prevent amyloid aggregation.
Metal ions bind to a histidine rich domain in amyloid producing Aβ in the form of insoluble plaques. This process has been extensively studied and described in a number of recent reviews.

amyloid aggregates = assay: TEM imaging of copper-induced amyloid aggregates; assay type: biochemical; details: incubated 12 hours
Procedure: FIG. 3 is an illustration of TEM Images showing (a) copper induced aggregation of amyloid and (b) its dissolution by 1.
Transmission electron microscopy (TEM) and Scanning Electron Microscopy (SEM) were utilized to study the morphology of the aggregates with and without chelators, as well. […] Aliquots from the stock used to make grid (a) were then incubated with 1 for 12 hours and then prepared for microscopy. The sizes of the aggregates upon treatment with 1 are an average of 1-2 orders of magnitude smaller and observably more diffuse, as shown in grid (b). SEM images also confirm the ability of the chelates to affect aggregate size as well.

FRDA cells [9] = assay: DCFH-DA ROS assay with BSO; assay type: cell-based, human; details: 12 hours BSO 1 mM, compound 4 nM
Procedure: FIG. 6 is a graph showing DCFH-DA fluorescent response in FRDA cells after 12 hours exposure to BSO [1 mM] with 1-4 [4 nM].
FIG. 7 is a graph of DCFH-DA fluorescent response in FRDA cells after 12 hours exposure to BSO [1 mM] showing dose dependence with 1.
FIG. 9 is a graph of DCFH-DA fluorescent response in FRDA cells after 12 hours exposure to BSO [1 mM] showing dose dependence with 1 and 2.
The antioxidant activity of compound 1 compared to compounds 2-3 (Chart 1) was then studied using the cell-permeable fluorophore 2,7′-Dichlorodihydrofluorescin diacetate (DCFH-DA) as an indicator for ROS. DCFH-DA diffuses into cells and is deacetylated by cellular esterases to non-fluorescent 2′,7′-Dichlorodihydrofluorescin (DCFH). This species is subsequently oxidized to the highly fluorescent 2′,7′-Dichlorodihydrofluorescein (DCF) species in the presence of ROS. The fluorescent intensity is directly proportional to the amount of ROS present in cell cytosol. BSO (2-amino-4-(butylsulfonimidoyl)butanoic acid) was used to inhibit the first step of de novo glutathione synthesis, allowing us to observe the elevated intra-cellular [ROS] are thereby observed.
Cellular studies were carried out to evaluate the intra-cellular antioxidant efficacy and toxicity of compound 2 (Chart 2) compared to 1 using the cell-permeable fluorophore 2,7′-dichlorodihydrofluorescin diacetate (DCFH-DA) as an indicator for ROS. DCFH-DA diffuses into cells and is deacetylated by cellular esterases to non-fluorescent 2′,7′-dichlorodihydrofluorescin (DCFH) which is subsequently oxidized to the highly fluorescent 2′,7′-dichlorodihydrofluorescein (DCF) species in the presence of ROS. The fluorescence intensity is directly proportional to the amount of ROS present in cell cytosol.^11 BSO (2-amino-4-(butylsulfonimidoyl)butanoic acid) is a commonly used model for oxidative stress via inhibition of cytosolic glutathione synthesis resulting in elevated intra-cellular [ROS] and an increased fluorescent signal in the presence of DCFH (FIG. 9).

Aβ1-40 [10] = assay: Tyr^10 fluorescence of Aβ1-40; assay type: biochemical
Excerpt: FIG. 2 is a graph showing the addition of ligands 1-4 to aggregated Aβ results in reconstitution of Tyr^10 fluorescence which was decreased due to aggregate formation.
To further determine the capability of 1 to prevent or disrupt metal-ion induced amyloid aggregation, Applicant's studied Tyr fluorescence intensity. Recent reports have also utilized the natural fluorescence of the native Tyr^10 in the Aβ1-40 sequence to study the conformational dynamics of amyloid folding as it relates to AD and/or production of H2O2. As Tyr^10 is located within proximity to the metal binding pocket in Aβ1-40 the fluorescence intensity of the phenolic side chain decreases during the folding process due to environmental changes that occur locally. This work was supported by circular dichroism spectra, which verified that fluorescence intensity decreased as the conformation of amyloid changed to beta-sheets. […] Applicant's hypothesis was that Tyr fluorescence intensity should be restored to control levels upon addition of compounds 1-4 (Chart 1) to a solution of pre-formed metal aggregates, as shown below in FIG. 2. […] Similar results were also obtained for amyloid samples co-incubated with 1-4 prior to metal ion addition.
The macrocyclic compound 2 (Chart 2) is also a chelator capable of preventing metal-induced amyloid formation as well as disaggregation. Metal ions bind to a histidine rich domain in amyloid producing Aβ in the form of insoluble plaques. This process has been extensively studied and described in a number of recent reviews. […] Moreover, amyloid aggregates formed by metal ion co-incubation can be disaggregated by the addition of compounds 1 or 2 (FIG. 12b).

two separate cell lines = assay: Preliminary cell-viability screen; assay type: cell-based
Excerpt: as §2

[11] = log K constants with Cu^II; assay type: binding
Excerpt: as §3

Structure (SMILES): O=C(CCCCC1CCSS1)N1CCNCCNCCNCC1 (racemic) [Compound 2 (Chart 4), (±)-5-(1,2-dithiolan-3-yl)-1-(1,4,7,10-tetraazacyclododecan-1-yl)pentan-1-one]
- EC50 at 48 h (MTT cytotoxicity assay): 312 µM
- quenching of the DPPH radical [1]: equivalent amount of radical
- increase of cell proliferation with respect to the control (Aβ+Cu^+2) (HT-22 cells): 37%

Structure (SMILES): O=C(O)CCCC[C@@H](S)CCS (racemic) [DHLA, dihydrolipoic acid]
- redox potential [2]: −320 mV
- pKa [3]: 4.7

Structure (SMILES): c1cc2nc(c1)CNCCNCCNC2 [1 (Chart 1), pyclen]
- Trolox equivalents (ABTS radical) [4]: 0.4 Trolox equivalents
- log K constants Zn^II [5]: 14
- OH. generation measured as 7-hydroxy-CCA fluorescence, ligand co-incubated ([6]; CCA 100 uM, ascorbate 300 uM, Cu^II 40 uM): prevented entirely
- 7-hydroxy-CCA signal after addition to running Cu-ascorbate system ([6]; added after two minutes co-incubation with CCA): leveling of the 7-hydroxy-CCA signal
- viability at 0.001 µM (FRDA cells [7]): > 85%
- disaggregation of pre-formed metal-induced Aβ1-40 aggregates (turbidity) (Aβ1-40 [8]): reversed
- disaggregation of pre-formed metal-induced Aβ1-40 aggregates (turbidity) (Aβ1-40 [8]; listed as 1 (Chart 2)): disaggregated
- prevention of metal-induced Aβ1-40 aggregation (turbidity) (Aβ1-40 [8]; ligand co-incubated with amyloid before copper(II) or zinc(II) addition): prevents formation of aggregations
- decrease of amyloid aggregate size compared to the copper aggregates (TEM) (amyloid aggregates): 1-2 orders of magnitude
- increase of ROS over the negative control (media) (FRDA cells [9]): 15%
- reconstitution of Tyr^10 fluorescence of aggregated Aβ1-40 (Aβ1-40 [10]; ligand added to pre-formed metal aggregates): equally effective
- prevention of loss of Tyr^10 fluorescence of Aβ1-40 (Aβ1-40 [10]; ligand co-incubated prior to metal ion addition, 24 hours): equally effective
- tolerance in cell-viability screen (two separate cell lines): large degree of tolerance
- log K constants Cu^II [11]: 20
